Test results from US20240246905A1 (University of Leicester, priority 2021, published 2024).
≈ marks a conversion by molar mass, not a printed value.

Columns and labels:
MRSA 252 [1] = experiment: MIC, broth micro-dilution; type: cell-based, Staphylococcus aureus; conditions: Staphylococcus aureus, read-out: MIC
Method in brief: (§1)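 S. aureus cultures grown 18 h in TSB were used to inoculate twofold antibiotic series in TSB at 5×10^5 CFU/mL, per CLSI guidelines. Growth curves read by optical density at 12-min intervals for 18 h at 37 °C were fitted sigmoidally to calculate MIC.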

MSSA 476 [2] = experiment: MIC, broth micro-dilution; type: cell-based, Staphylococcus aureus; conditions: Staphylococcus aureus, MSSA, read-out: MIC
Method in brief: as §1

HEK293 cells = experiment: Cytotoxicity assay, resazurin (CO-ADD)
Method in brief: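 HEK293 cells in DMEM with 10% FBS were exposed to compounds at a single concentration of 32 μg/mL for 20 h at 37° C, 5% CO2. Viability read by resazurin fluorescence (2.3 μg/mL final, 3 h; F560/590). CC50 from sigmoidal dose-response fitting.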

[3] = test system: Staphylococcus aureus 15981; experiment: Disc diffusion (Kirby-Bauer), zone of inhibition; type: cell-based; conditions: Staphylococcus aureus 15981; 500 μg/mL; '/' = no zone; read-out: Zone of inhibition
Method in brief: (§2)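 Zones of inhibition recorded after 24 h at 37 °C on Mueller-Hinton agar. Agar was inoculated with 1 in 200 diluted 18 h broth cultures, and discs carried 50 μL of antibiotic. Method follows CLSI 2017 disc diffusion.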

MRSA 252 [4] = experiment: Disc diffusion (Kirby-Bauer), zone of inhibition; type: cell-based, Staphylococcus aureus; conditions: Staphylococcus aureus, 500 μg/mL, '/' = no zone, read-out: Zone of inhibition
Method in brief: as §2

MSSA 476 [5] = experiment: Disc diffusion (Kirby-Bauer), zone of inhibition; type: cell-based, Staphylococcus aureus; conditions: Staphylococcus aureus, 500 μg/mL, '/' = no zone, read-out: Zone of inhibition
Method in brief: as §2

red blood cells = experiment: Hemolysis assay (CO-ADD); type: cell-based; conditions: 32 μg/mL highest concentration tested
Text: A problem often encountered by emerging drugs is hemolysis, also known as drug-induced immune hemolytic anemia.

[6] = test system: various Staphylococcus aureus strains; experiment: Disc diffusion, Staphylococcus aureus strain study; type: cell-based; conditions: Staphylococcus aureus, 500 μg/mL
Text: At this point in the study it was decided to perform a disc diffusion assay study on 50 S. aureus strains. […] Moreover, by employing a range of mutant strains of S. aureus with specific gene-deletions, it was believed that if particular strains were resistant to the lead compounds, it could provide insights on the likely protein target of the lead antibiotics. However, all six of the compounds utilized in this study were able to inhibit growth of all 50 strains of S. aureus assayed at the chosen concentration of 500 μg/mL concentration (Table 5).
E. coli DH5α, P. aeruginosa PA01 and the 53 S. aureus strains were recovered from frozen (−80° C.) glycerol (15% v/v) stocks on Lysogeny agar (LA)—Gram negative and trypticase soy agar (TSA)—plates at 37° C. for 24 hours. Single colonies were placed in either 3 mL Lysogeny broth (LB)—Gram negative or trypticase soy broth (TSB)—Gram positive and incubated at 37° C., 250 rpm for 18 hours.
The antibiotic activity was determined using a Kirby-Bauer method according to Clinical Standard Laboratory Institute (CSLI) Guidelines (2017). Briefly, 180 μL of a 1 in 200 dilution (in LB or TSB) of overnight cultures of selected Gram negative and Gram positive bacteria were applied to an agar plate containing the solid growth medium, Mueller-Hinton agar (MHA). Sterile discs, inoculated with 50 μL of antibiotic, were first added to the agar plate before the plates were incubated for 24 hours at 37° C. Following incubation, the zone of inhibition (if it existed) was recorded.

[C-]#[N+]C=Cc1cc(Br)ccc1O [Compound 13]
MIC (MRSA 252 [1]): 35 µg/mL (≈ 156 µM)
MIC (MSSA 476 [2]): 145 µg/mL (≈ 647 µM)
Concentration toxic to HEK 293 cells (HEK293 cells; HEK 293): >32000 ng/mL
toxicity towards the HEK293 cell line (in words) (HEK293 cells; set concentration of 32 μg/mL): no toxicity
zone of inhibition at 500 µg/mL [3]: 18 mm
zone of inhibition at 500 µg/mL (MRSA 252 [4]): 22 mm
zone of inhibition at 500 µg/mL (MSSA 476 [5]): 22 mm
Hemolytic activity (HC10) (red blood cells): >32 µg/mL
zone of inhibition at 500 µg/mL ([6]; strain ASARM 61): 20 mm
zone of inhibition at 500 µg/mL ([6]; strain ASARM 70): 20 mm
zone of inhibition at 500 µg/mL ([6]; strain ASARM 71): 20 mm
zone of inhibition at 500 µg/mL ([6]; strain ASARM 72): 16 mm
zone of inhibition at 500 µg/mL ([6]; strain ASARM 73): 20 mm
zone of inhibition at 500 µg/mL ([6]; strain ASARM 75): 20 mm
zone of inhibition at 500 µg/mL ([6]; strain ASARM 76): 20 mm
zone of inhibition at 500 µg/mL ([6]; strain ASARM 77): 20 mm
zone of inhibition at 500 µg/mL ([6]; strain ASARM 79): 20 mm
zone of inhibition at 500 µg/mL ([6]; strain ASARM 80): 18 mm
zone of inhibition at 500 µg/mL ([6]; strain EOE 3): 24 mm
zone of inhibition at 500 µg/mL ([6]; strain EOE 23): 22 mm
zone of inhibition at 500 µg/mL ([6]; strain EOE 30): 22 mm
zone of inhibition at 500 µg/mL ([6]; strain EOE 35): 22 mm
zone of inhibition at 500 µg/mL ([6]; strain EOE 41): 20 mm
zone of inhibition at 500 µg/mL ([6]; strain EOE 42): 20 mm
zone of inhibition at 500 µg/mL ([6]; strain EOE 45): 24 mm
zone of inhibition at 500 µg/mL ([6]; strain EOE 52): 22 mm
zone of inhibition at 500 µg/mL ([6]; strain EOE 54): 22 mm
zone of inhibition at 500 µg/mL ([6]; strain EOE 57): 25 mm
zone of inhibition at 500 µg/mL ([6]; strain S139_7_7): 24 mm
zone of inhibition at 500 µg/mL ([6]; strain S197_1_1): 26 mm
zone of inhibition at 500 µg/mL ([6]; strain S197_1_8): 20 mm
zone of inhibition at 500 µg/mL ([6]; strain S197_1_9): 20 mm
zone of inhibition at 500 µg/mL ([6]; strain S197_1_10): 20 mm
zone of inhibition at 500 µg/mL ([6]; strain S295_1_1): 22 mm
zone of inhibition at 500 µg/mL ([6]; strain S295_1_2): 20 mm
zone of inhibition at 500 µg/mL ([6]; strain S295_1_3): 20 mm
zone of inhibition at 500 µg/mL ([6]; strain S364_5_11): 20 mm
zone of inhibition at 500 µg/mL ([6]; strain S364_5_12): 25 mm
zone of inhibition at 500 µg/mL ([6]; strain Sa_TPS 3026): 20 mm
zone of inhibition at 500 µg/mL ([6]; strain Sa_TPS 3072): 21 mm
zone of inhibition at 500 µg/mL ([6]; strain Sa_TPS 3092): 20 mm
zone of inhibition at 500 µg/mL ([6]; strain Sa_TPS 3097): 20 mm
zone of inhibition at 500 µg/mL ([6]; strain Sa_TPS 3103): 20 mm
zone of inhibition at 500 µg/mL ([6]; strain Sa_TPS 3104): 22 mm
zone of inhibition at 500 µg/mL ([6]; strain Sa_TPS 3106): 16 mm
zone of inhibition at 500 µg/mL ([6]; strain Sa_TPS 3118): 22 mm
zone of inhibition at 500 µg/mL ([6]; strain Sa_TPS 3133): 20 mm
zone of inhibition at 500 µg/mL ([6]; strain Sa_TPS 3134): 18 mm
zone of inhibition at 500 µg/mL ([6]; strain USFL 008): 18 mm
zone of inhibition at 500 µg/mL ([6]; strain USFL 009): 22 mm
zone of inhibition at 500 µg/mL ([6]; strain USFL 012): 22 mm
zone of inhibition at 500 µg/mL ([6]; strain USFL 016): 20 mm
zone of inhibition at 500 µg/mL ([6]; strain USFL 018): 20 mm
zone of inhibition at 500 µg/mL ([6]; strain USFL 020): 20 mm
zone of inhibition at 500 µg/mL ([6]; strain USFL 021): 22 mm
zone of inhibition at 500 µg/mL ([6]; strain USFL 028): 22 mm
zone of inhibition at 500 µg/mL ([6]; strain USFL 035): 22 mm
zone of inhibition at 500 µg/mL ([6]; strain USFL 054): 22 mm
